system: Plutella xylostella; test: Plutella xylostella, leaf dip method; type: in vivo; conditions: foliar, cabbage leaf dip, second instar larvae, 72 h after release, dead + moribund vs untreated control, read-out: percent mortality
Protocol: The leaf dip method was used for testing, wherein the required quantity of the compound was weighed and dissolved in a tube containing solvent solution. The tube was put on a vortex at 2000 rpm for 90 min for proper mixing, then diluted with 0.01% Triton-X solution to get the desired test concentration. Cabbage leaves were dipped in the compound solution for 10 seconds, shade dried for 20 min and then transferred into the cells of bioassay trays. A single second instar larva was released into each cell and the tray was covered with a lid. The bio-assay trays were then kept under laboratory conditions at a temperature of 25° C. and a relative humidity of 70%. Observations on dead, moribund and alive larvae were recorded 72 h after the release. Percent mortality was calculated by combining dead and moribund larvae and comparing the result to the one of the untreated control.

Row | Compound | mortality at 300 ppm [%]
1 | CCS(=O)(=O)c1ccc(C2CC2)nc1-c1ccn2nc(C(F)(F)F)cc2n1 [Compound 171, 5-(6-cyclopropyl-3-(ethylsulfonyl)pyridin-2-yl)-2-(trifluoromethyl)pyrazolo[1,5-a]pyrimidine] | ≥ 70
2 | CCS(=O)(=O)c1ccc(-c2ccc(Cl)cc2)nc1-c1cnc2nc(C(F)(F)F)nn2c1 [Compound 47, 6-(6-(4-chlorophenyl)-3-(ethylsulfonyl)pyridin-2-yl)-2-(trifluoromethyl)-[1,2,4]triazolo[1,5-a]pyrimidine] | ≥ 70
3 | CCS(=O)(=O)c1ccc(OC2CSC2)nc1-c1ccn2nc(C(F)(F)F)cc2n1 [Compound 243, 5-(3-(ethylsulfonyl)-6-(thietan-3-yloxy)pyridin-2-yl)-2-(trifluoromethyl)pyrazolo[1,5-a]pyrimidine] | ≥ 70
4 | CCS(=O)(=O)c1ccc(N(C)C2CC2)nc1-c1ccn2nc(C(F)(F)F)nc2n1 [Compound 176, N-cyclopropyl-5-(ethylsulfonyl)-N-methyl-6-(2-(trifluoromethyl)-[1,2,4]triazolo[1,5-a]pyrimidin-5-yl)pyridin-2-amine] | ≥ 70
5 | CCS(=O)(=O)c1cc(CC#N)cnc1-c1ccn2nc(C(F)(F)F)cc2n1 [Compound 232, 2-(5-(ethylsulfonyl)-6-(2-(trifluoromethyl)pyrazolo[1,5-a]pyrimidin-5-yl)pyridin-3-yl)acetonitrile] | ≥ 70
6 | CCS(=O)(=O)c1cc(-c2cncnc2)cnc1-c1ccn2nc(C(F)(F)F)cc2n1 [Compound 95, 5-(3-(ethylsulfonyl)-5-(pyrimidin-5-yl)pyridin-2-yl)-2-(trifluoromethyl)pyrazolo[1,5-a]pyrimidine] | ≥ 70
7 | CCS(=O)(=O)c1cc(C)cnc1-c1ccn2nc(C(F)(F)F)cc2n1 [Compound 164, 5-(3-(ethylsulfonyl)-5-methylpyridin-2-yl)-2-(trifluoromethyl)pyrazolo[1,5-a]pyrimidine] | ≥ 70
8 | CCS(=O)(=O)c1ccc(NCC2CC2)nc1-c1ccn2nc(C(F)(F)F)cc2n1 [Compound 242, N-(cyclopropylmethyl)-5-(ethylsulfonyl)-6-(2-(trifluoromethyl)pyrazolo[1,5-a]pyrimidin-5-yl)pyridin-2-amine] | ≥ 70
9 | CCS(=O)(=O)c1ccc(C(C)C)nc1-c1ccn2nc(C(F)(F)F)cc2n1 [Compound 238, 5-(3-(ethylsulfonyl)-6-isopropylpyridin-2-yl)-2-(trifluoromethyl)pyrazolo[1,5-a]pyrimidine] | ≥ 70
10 | CCS(=O)(=O)c1ccc(N2CCn3c(nnc3C(F)(F)F)C2)nc1-c1ccn2nc(C(F)(F)F)cc2n1 [Compound 6, 7-(5-(ethylsulfonyl)-6-(2-(trifluoromethyl)pyrazolo[1,5-a]pyrimidin-5-yl)pyridin-2-yl)-3-(trifluoromethyl)-5,6,7,8-tetrahydro-[1,2,4]triazolo[4,3-a]pyrazine] | ≥ 70
11 | CCS(=O)(=O)c1cc(NC(=O)OC(C)(C)C)cnc1-c1ccn2nc(C(F)(F)F)cc2n1 [Compound 222, tert-butyl (5-(ethylsulfonyl)-6-(2-(trifluoromethyl)pyrazolo[1,5-a]pyrimidin-5-yl)pyridin-3-yl)carbamate] | ≥ 70
12 | CCS(=O)(=O)c1cc(-c2cc(F)cc(F)c2)cnc1-c1ncc2nc(C(F)(F)F)n(C)c2n1 [Compound 122, 2-(5-(3,5-difluorophenyl)-3-(ethylsulfonyl)pyridin-2-yl)-9-methyl-8-(trifluoromethyl)-9H-purine] | ≥ 70
13 | CCS(=O)(=O)c1cc(C=C(C)C)cnc1-c1ccn2nc(C(F)(F)F)cc2n1 [Compound 201, 5-(3-(ethylsulfonyl)-5-(2-methylprop-1-en-1-yl)pyridin-2-yl)-2-(trifluoromethyl)pyrazolo[1,5-a]pyrimidine] | ≥ 70
14 | CCS(=O)(=O)c1cc(-n2cncn2)cnc1-c1ccn2nc(C(F)(F)F)nc2n1 [Compound 146, 5-(3-(ethylsulfonyl)-5-(1H-1,2,4-triazol-1-yl)pyridin-2-yl)-2-(trifluoromethyl)-[1,2,4]triazolo[1,5-a]pyrimidine] | ≥ 70

From patent publication US12514251B2, “Fused heterocyclic compounds and their use as pest control agents” (priority 2020, dated 2026)
